# Measured values from publication PMC11129182, “Development of Inhibitors, Probes, and PROTAC Provides a Complete Toolbox to Study PARK7 in the Living Cell” (Journal of Medicinal Chemistry, 2024).
# Read-outs that look alike come from different tables or passages of the source.
# Columns and labels:
# A549 cells = assay: Cell viability assay (CellTiter-Blue); format: cell-based, human; settings: up to 5 μM, 72 h incubation
# Procedure: 5 × 10^3 A549 cells were seeded into 96-well plates. The following day, the indicated final concentrations of JYQ-164 and JYQ-173 were added to the cells, and DMSO was used as a control. Inhibitors were renewed at 36 h, and cells were incubated with them an additional 36 h. Cell viability was measured using the CellTiter-Blue viability assay (Promega). Relative survival was normalized to the DMSO-treated sample and corrected for background signal. page 8: Figure S6. Cytotoxicity assay for JYQ-164 and JYQ-173 in A549 cells. ( A) PARK7 engagement of JYQ -164 and JYQ-173 in A459 cells. A549 cells were incubated with […] The reactions were stopped by addition of NuPAGE™ LDS sample buffer (4x) , followed by cell lysis, SDS-PAGE, fluorescence scanning, and immunoblott in g against PARK7 and β-actin. β-actin was used as a loading control. (B) A549 cells were incubated with indicated concentration of JYQ-164 (left panel) or JYQ-173 (right panel) for 72 h where the inhibitors were renewed after 36 h. Cell viability was measured using the CellTiter-Blue assay. Relative viability was normalized to untreated control and corrected for background signal. S8 (1 picture or pasted object on this page, not shown here)
# [1] = biological target: T1, reactive cysteine sites of other proteins in A549 cells (Homo sapiens, UniProt O60664); settings: 4 h, O60664_C39 Perilipin-3
# T1 sequence (O60664 1-434): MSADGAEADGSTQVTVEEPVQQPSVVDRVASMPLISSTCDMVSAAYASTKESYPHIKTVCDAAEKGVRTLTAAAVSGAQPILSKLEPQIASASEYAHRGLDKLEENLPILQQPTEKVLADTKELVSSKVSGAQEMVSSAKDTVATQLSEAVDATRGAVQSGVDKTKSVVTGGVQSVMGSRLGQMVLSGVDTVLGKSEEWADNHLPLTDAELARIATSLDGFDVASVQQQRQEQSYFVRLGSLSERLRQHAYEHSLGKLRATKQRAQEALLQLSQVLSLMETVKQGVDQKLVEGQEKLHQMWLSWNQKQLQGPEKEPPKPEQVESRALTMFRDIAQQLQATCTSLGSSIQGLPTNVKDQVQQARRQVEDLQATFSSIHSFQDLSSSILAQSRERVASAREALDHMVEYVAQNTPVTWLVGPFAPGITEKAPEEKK
# Source text: (§1) Further, the samples were digested with tosylsulfonyl phenylalanyl chloromethyl ketone (TPCK)-treated trypsin and endoGluC to increase the coverage of protein sequences, especially the PARK7 peptide containing Cys106 residue. Peptides generated by digestion from replicates of each sample were labeled using TMT16-plex to perform tandem mass tag (TMT)-based quantitative proteomics profiling. Following the TMT labeling, all samples were pooled and the peptides conjugated to the DBIA probe were enriched by streptavidin beads and analyzed by LC-MS/MS (Figure 3A). […] All cysteines were represented with the shortest peptide by using the average CR values of all the peptides with the same modified cysteine from the same protein in the same condition.[16],[27],[28]
# (§2) A549 cells were seeded into 10 cm plates in 10 mL of media. […] The cells were then washed two times with cold PBS (1 mL per 10 cm plate) and collected by scraping them with a cell scraper. Cells were lysed by sonication in ice-cold PBS and centrifuged at 15,000 rpm for 2 min to remove cell debris. The BCA Gold protein assay (Thermo Fisher Scientific) was performed to determine protein concentration. Each sample (100 μg) was labeled with 500 μM DBIA probe for 1 h in the dark at room temperature (RT). Excess DBIA and disulfide bonds were quenched and reduced, respectively, using 5 mM dithiothreitol (DTT) for 30 min in the dark at RT. Reduced disulfide bonds were alkylated using 20 mM iodoacetamide for 30 min in the dark at RT. […] Digested peptides were labeled with TMTpro16-plex reagents (Thermo Fisher Scientific) in a 1:4 ratio by mass (peptides/TMT reagents) for 1 h at RT. Excess TMT reagent was quenched with 5 μL 6% hydroxylamine for 15 min at RT. All samples were then pooled and lyophilized.
# (§3) Nonspecific binding peptides were washed away using the following procedure: 3 × 1 mL of PBS pH 7.4, 2 × 1 mL of PBS with 0.1% SDS pH 7.4, and 3 × 1 mL of HPLC-grade water. DBIA probe-containing peptides were eluted using 700 μL of 50% acetonitrile in 0.1% TFA, lyophilized using a Speedvac, and desalted using a handmade mini-SPE column (10% sorbent material of a Waters, OASIS 1 cm^3 HLB 30 mg cartridge). Column was equilibrated with 200 μL of 90% acetonitrile and 3 × 200 μL of 10 mM NH4HCO3 pH 8.4. The dried sample was dissolved in 200 μL of 10 mM NH4HCO3 pH 8.4, loaded onto the column, washed 3x with 200 μL of 10 mM NH4HCO3 pH 8.4, and eluted into 3 fractions with 150 μL of 10, 20, and 50% acetonitrile (in 10 mM NH4HCO3). Samples were then lyophilized.
# (§4) 2.2.04 (www.matrixscience.com) for protein identification. Mascot searches were done with 10 ppm and 0.02 Da deviation for the precursor and fragment mass, respectively, and the enzymes trypsin and EndoGluC was specified, up to three missed cleavages were allowed. Methionine oxidation, acetyl (protein N-term), and DBIA on Cys were set as a variable modification. Carbamidomethyl on Cys and TMTpro on Lys and N-term were set as a fixed modification. Peptides with an FDR <1% were accepted. Peptides were only retained, if they were quantified and if there was exactly one DBIA modification on the peptide. The values for each TMT channel were normalized to the average of the values for the DMSO samples for the same peptide, and these values were named CR. For each peptide, the first entry of the Master Protein Accessions column was chosen as the Master Protein Accession, and the residue number of the cysteine modified by DBIA within the entire protein sequence was determined. Using this information, each peptide was assigned an identifier consisting of the Master Protein Accession and the residue number of the modified cysteine to assign each peptide to the respective modified cysteine residue. Within each replicate, CR values for all peptides with the same identifier (and thus the same modified cysteine residue) were combined by averaging and only the shortest Annotated Sequence was kept as the final Annotated Sequence.
# [2] = biological target: reactive cysteine sites of other proteins in A549 cells (Homo sapiens, UniProt P04080); settings: 4 h, P04080_C3 Cystatin-B
# Source text: as §1, §2, §3, §4
# [3] = biological target: reactive cysteine sites of other proteins in A549 cells (Homo sapiens, UniProt P40222); settings: 4 h, P40222_C87 Alpha-taxilin
# Source text: as §1, §2, §3, §4
# [4] = biological target: reactive cysteine sites of other proteins in A549 cells (Homo sapiens, UniProt Q13085); settings: 4 h, Q13085_C1297 Acetyl-CoA carboxylase 1
# Source text: as §1, §2, §3, §4
# PARK7 [5] = biological target: T2, PARK7 (Homo sapiens, UniProt Q99497); assay: TMT-based global proteomic profiling in A549 cells, PARK7; format: cell-based; set-up: incubating A549 cells with 5 μM JYQ-194 for 8 h, along with 5 μM JYQ-173 and DMSO as a control; endogenous in cells; host or cells: A549; settings: 5 μM, 8 h
# T2 sequence (Q99497 1-189): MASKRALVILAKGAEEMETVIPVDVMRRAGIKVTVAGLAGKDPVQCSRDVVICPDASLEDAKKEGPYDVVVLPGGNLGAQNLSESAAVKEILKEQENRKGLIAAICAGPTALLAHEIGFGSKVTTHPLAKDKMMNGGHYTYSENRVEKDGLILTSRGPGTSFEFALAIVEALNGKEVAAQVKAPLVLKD
# Procedure: A549 cells were seeded into 10 cm plates in 10 mL of media. […] Cells were lysed using a 5% SDS lysis buffer (100 mM Tris-HCl, pH 7.6) and were incubated at 95 °C for 4 min. Protein determination was performed using the Pierce BCA Gold protein assay. 100 μg of protein of each sample was reduced and alkylated, and excess iodoacetamide was quenched using 5 mM TCEP, 15 mM iodoacetamide, and 10 mM DTT, respectively. The protein was pelleted down using chloroform/methanol precipitation, and the resulting pellets were resolubilized in 40 mM HEPES pH 8.4. […] The Pierce BCA Gold protein assay was used to determine the peptide concentration. The peptides were labeled with TMTpro Label Reagents in a 1:4 ratio by mass (peptides/TMT reagents) for 1 h at RT. Five μL of 6% hydroxylamine was added to quench excess TMT reagent and incubated for 15 min at RT. Samples were pooled and lyophilized. The sample was subsequently fractionated on an Agilent 1200 series HPLC system (Agilent Technologies). 75 μg of the pooled sample was dissolved in solvent A (10 mM NH4HCO3, pH 8.4), injected onto, and eluted from an Agilent Eclipse Plus C18 2.1 × 150 mm 3.5 μm column (Agilent Technologies). The gradient was run from 2 to 90% solvent B (10 mM NH4HCO3, pH 8.4 final concentration, 20/80 water/acetonitrile v/v) in 30 min at a flow rate of 200 μL/min. […]
# [6] = tested on: other proteins of A549 cells; assay: TMT-based global proteomic profiling in A549 cells, other proteins; format: cell-based, Homo sapiens; settings: 8 h; for Abundance Ratio: (compound) / (1 DMSO) / Abundance Ratio: log2 (compound) / (1 DMSO): A549, 5 μM
# Procedure: A549 cells were seeded into 10 cm plates in 10 mL of media. […] Cells were lysed using a 5% SDS lysis buffer (100 mM Tris-HCl, pH 7.6) and were incubated at 95 °C for 4 min. Protein determination was performed using the Pierce BCA Gold protein assay. 100 μg of protein of each sample was reduced and alkylated, and excess iodoacetamide was quenched using 5 mM TCEP, 15 mM iodoacetamide, and 10 mM DTT, respectively. The protein was pelleted down using chloroform/methanol precipitation, and the resulting pellets were resolubilized in 40 mM HEPES pH 8.4. […] The Pierce BCA Gold protein assay was used to determine the peptide concentration. The peptides were labeled with TMTpro Label Reagents in a 1:4 ratio by mass (peptides/TMT reagents) for 1 h at RT. Five μL of 6% hydroxylamine was added to quench excess TMT reagent and incubated for 15 min at RT. Samples were pooled and lyophilized. The sample was subsequently fractionated on an Agilent 1200 series HPLC system (Agilent Technologies). 75 μg of the pooled sample was dissolved in solvent A (10 mM NH4HCO3, pH 8.4), injected onto, and eluted from an Agilent Eclipse Plus C18 2.1 × 150 mm 3.5 μm column (Agilent Technologies). The gradient was run from 2 to 90% solvent B (10 mM NH4HCO3, pH 8.4 final concentration, 20/80 water/acetonitrile v/v) in 30 min at a flow rate of 200 μL/min. Twelve fractions were made; every 30 s a fraction was collected in a vial, and the eluate of the next 30 s was collected in the next vial and so on until it loops back to the first vial (5 loops of 6 min each). Afterward, the samples were lyophilized.
# 2.2.07 (www.matrixscience.com) for protein identification. Mascot searches were with 10 ppm and 0.02 Da deviation for precursor and fragment mass, respectively. Enzyme specificity was set to trypsin. Up to two missed cleavages were allowed. Methionine oxidation and acetyl on protein N-terminus were set as variable modifications. Carbamidomethyl on Cys and TMTpro on Lys and N-terminus were set as fixed modifications. Protein FDR of 1% was set. Normalization was on total peptide amount. The values for each TMT channel were normalized to the average of the values for the DMSO samples for the same peptide, and these values were named FC. The log2 FC values of all replicates for the same master protein were averaged to give the “Average log2 FC”. A one-sample t test was performed against the null hypothesis of log2 FC = 0, and the resulting −log10p values were reported for each protein. The volcano plot was plotted using GraphPad Prism v.9.01.
# PARK7 [7] = biological target: T2, PARK7; assay: Activity evaluation of PROTACs in cells (PARK7 degradation, immunoblot); set-up: Dmax: dose or concentration left out as unconfirmed
# Procedure: A549 cells were seeded into 6-well plates. The next day after seeding, cells were incubated with the indicated concentrations of indicated PROTACs for 8 h. The cells were then washed with PBS and collected. The collected cell pellets were lysed with Tris-triton buffer as described above. The prepared cell lysate of each sample (10 μL) was added 5 μL 3× LDS + 5% β-mercaptoethanol, and boiled for 10 min.
# Chain of reactive cysteine sites of other proteins in A549 cells (Homo sapiens, UniProt P04080) (P04080 whole entry): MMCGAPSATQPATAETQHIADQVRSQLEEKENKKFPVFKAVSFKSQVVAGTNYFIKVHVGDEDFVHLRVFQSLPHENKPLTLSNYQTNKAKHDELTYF
# Chain of reactive cysteine sites of other proteins in A549 cells (Homo sapiens, UniProt P40222) (P40222 whole entry): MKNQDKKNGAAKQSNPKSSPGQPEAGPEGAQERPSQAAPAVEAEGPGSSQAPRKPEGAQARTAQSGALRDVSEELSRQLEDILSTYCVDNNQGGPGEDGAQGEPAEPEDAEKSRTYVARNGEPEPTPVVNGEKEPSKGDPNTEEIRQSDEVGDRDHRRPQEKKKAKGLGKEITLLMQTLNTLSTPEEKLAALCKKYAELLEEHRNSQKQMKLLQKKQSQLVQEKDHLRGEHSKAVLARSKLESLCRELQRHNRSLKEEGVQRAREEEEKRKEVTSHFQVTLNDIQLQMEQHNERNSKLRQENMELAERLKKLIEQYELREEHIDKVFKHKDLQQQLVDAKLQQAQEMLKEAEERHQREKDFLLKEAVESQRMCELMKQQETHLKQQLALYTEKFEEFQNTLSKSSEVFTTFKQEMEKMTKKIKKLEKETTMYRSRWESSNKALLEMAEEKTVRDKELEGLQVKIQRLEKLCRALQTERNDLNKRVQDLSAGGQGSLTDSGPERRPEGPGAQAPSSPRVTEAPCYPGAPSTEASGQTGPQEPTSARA
structure (smiles),measurement,setting,value
"N#CN1CC[C@@H](C(=O)Nc2nc3c(s2)CN(C(=O)c2cccc(S(=O)(=O)N4CCOCC4)c2)CC3)C1 [Compound 340, (R)-1-Cyano-N-(5-(3-(morpholinosulfonyl)benzoyl)-4,5,6,7-tetrahydrothiazolo[5,4-c]pyridin-2-yl)pyrrolidine-3-carboxamide]",cytotoxicity,A549 cells,did not show any cytotoxicity
same,Average log2 CR (DMSO/inhibitor),"[1]; A549, 0.5 µM",0.5943
same,Average log2 CR (DMSO/inhibitor),"[1]; A549, 5 µM",0.5954
same,Average log2 CR (DMSO/inhibitor),"[2]; A549, 0.5 µM",1.056
same,Average log2 CR (DMSO/inhibitor),"[2]; A549, 5 µM",0.758
same,Average log2 CR (DMSO/inhibitor),"[3]; A549, 0.5 µM",0.6134
same,Average log2 CR (DMSO/inhibitor),"[3]; A549, 5 µM",0.7033
same,Average log2 CR (DMSO/inhibitor),"[4]; A549, 0.5 µM",0.8087
same,Average log2 CR (DMSO/inhibitor),"[4]; A549, 5 µM",0.7839
N#CN1CC[C@@H](C(=O)Nc2nc3c(s2)CN(C(=O)c2cc(-n4cc(COCCOCCNc5cccc6c5C(=O)N(C5CCC(=O)NC5=O)C6=O)nn4)ccc2F)CC3)C1 (stereo partly shown) [JYQ-194],PARK7 protein level (total proteome profiling),PARK7 [5],induced the degradation of PARK7
same,Abundance Ratio: (compound) / (1 DMSO),[6]; ESYT2 (A0FGR8),1.074
same,Abundance Ratio: log2 (compound) / (1 DMSO),[6]; ESYT2 (A0FGR8),0.1157
same,Abundance Ratio: (compound) / (1 DMSO),[6]; RBM47 (A0AV96),1.045
same,Abundance Ratio: log2 (compound) / (1 DMSO),[6]; RBM47 (A0AV96),0.07722
same,Abundance Ratio: (compound) / (1 DMSO),[6]; SMIM26 (A0A096LP01),1.081
same,Abundance Ratio: log2 (compound) / (1 DMSO),[6]; SMIM26 (A0A096LP01),0.1302
same,Abundance Ratio: (compound) / (1 DMSO),[6]; TTC26 (A0AVF1),0.975
same,Abundance Ratio: log2 (compound) / (1 DMSO),[6]; TTC26 (A0AVF1),-0.08647
same,Abundance Ratio: (compound) / (1 DMSO),[6]; UBA6 (A0AVT1),0.964
same,Abundance Ratio: log2 (compound) / (1 DMSO),[6]; UBA6 (A0AVT1),-0.04606
same,DOP1B protein level (total proteome profiling),"[6]; A549 cells, 5 μM",decreased
same,HINT2 protein level (total proteome profiling),"[6]; A549 cells, 5 μM",partly decreased
same,TM7SF3 protein level (total proteome profiling),"[6]; A549 cells, 5 μM",decreased
same,Dmax,PARK7 [7]; A549,~80%
same,time from which PARK7 degradation is observed,"PARK7 [7]; A549 cells, 5 μM",4 h
same,time by which maximal PARK7 degradation is reached,"PARK7 [7]; A549 cells, 5 μM, remained until 24 h",8 h
same,concentration at which PARK7 degradation starts,"PARK7 [7]; A549 cells, 0.1 to 5 μM, 8 h",0.1 µM
same,PARK7 degradation in other tumor cell lines,"PARK7 [7]; Hela, H1299, and MCF7 cells, 8 h",PARK7 degradation was observed in all these cells in a dose-dependent manner
